The text below walks through data of the OPERA property sets (Mansouri et al. 2018).

≈ marks a conversion by molar mass, not a printed value. Where a SMILES comes first, the peptide text is derived from it.

Consider `CC(=O)N[C@H](C(=O)N[C@@H](C)C(N)=O)C(C)C` (Ac-Val-Ala-NH2), for which the logP – broadly, a log measure of how a compound divides between an organic and an aqueous phase – was -1.14.

On to `ClC=C1C2CC(C(Cl)C2(Cl)Cl)C1(CCl)CCl` (stereo not drawn), for which the lipophilicity (logP) was determined as 5.2.

With `COCCNCc1cc2cc(S(N)(=O)=O)sc2s1`, the logP came to 0.32.

In turn, `O=c1ccn(C2OC(CO)C(O)C2O)c(=O)n1Cc1ccccc1` (stereo not drawn) had a logP of 0.33.

As to `CCN(CC)CCCC(C)N=c1cc2n(-c3ccc(Cl)cc3)c3ccccc3nc-2cc1Nc1ccc(Cl)cc1` (stereo not drawn), the logP was 7.92.

`CCCC(C)C(=O)O` (stereo not drawn) yielded a logP of 1.8.

With `O=C(O)CCCC(=O)c1ccc(-c2ccccc2)cc1`, the logP came to 3.35.

As to `O=C(O)CNCP(=O)(O)O`, the logP was -3.4.

`Cc1cc(Cl)c(Cc2cc(Cl)ccc2Cl)cc1Cl` had a logP of 7.48.

In turn, `C=CCNc1ncc(-c2ccncc2)cc1C#N` came in with a logP of 2.07.

As to `ClC1=C(Cl)C2(Cl)C3C(Cl)C=CC3C1(Cl)C2(Cl)Cl` (stereo not drawn), the log partition coefficient (logP) is 6.1.

`CCCC(=O)Oc1c(Br)cc(C#N)cc1Br` displayed a logP of 3.94.

For `O=C1c2ccccc2C(=O)C1C(=O)C(c1ccccc1)c1ccccc1`, the logP came to 4.27.

Molecule `CCCCC[C@H](O)/C=C/[C@@H]1[C@@H](C/C=C\CCCC(=O)O)[C@@H](O)C[C@H]1O` registered a logP of 4.39.

As to `NC(=O)c1ccccc1NCC(O)CO` (stereo not drawn), the logP was -0.8.

On to `C[C@@H]1CC[C@H](C)O1`, for which the logP amounted to 1.22.

`CCCCc1ccc(N)cc1` showed a logP of 3.05.

As to `CCNC(=O)CCC(NS(=O)(=O)c1ccccc1)C(=O)O` (stereo not drawn), the logP came out at 0.15.

As to `CC(C)c1ccc(NC(=O)CN(CC(=O)O)CC(=O)O)cc1Br`, the logP was -0.08.

The molecule `COc1ccc(C(C)NCCC(c2ccccc2)c2ccccc2)cc1OC` (stereo not drawn) came in with a logP of 5.8.

Molecule `CCCCCCCCC(C)=O` came in with a logP of 3.73.

In turn, `CCOC(=O)c1ccc(OCC)cc1` returned a logP of 3.6.

`COc1cccc(OCCN(C)C)c1` came in with a logP of 1.69.

Turning to `CC(=O)CC(C)C`, the logP worked out at 1.31.

Regarding `CCCSc1ccc2[nH]c(NC(=O)OC)nc2c1`, the logP came to 3.07.

As for `COc1ccc(N=c2snc3sc(S(N)(=O)=O)nn23)cc1`, the logP came to 2.93.

Regarding `CCCCn1ccc(=O)c(O)c1`, the logP is 0.72.

As to `COc1ccc2c3c1O[C@H]1[C@@H](O)C=C[C@H]4[C@@H](C2)NCC[C@@]341`, the logP was found to be 0.69.

`C=CC(=O)NCCCN1CCSCC1` came in with a logP of 0.54.

As to `CC(C)C(C#N)c1ccc(Cl)cc1` (stereo not drawn), the logP was determined as 3.41.

In the case of `CCC(=O)CC`, the solubility (as a rule, the dissolved amount per volume that the medium holds) was found to be 558 mM (≈ 48.1 mg/mL).

For the molecule `COc1cccc(N=C=S)c1`, the logP is 3.68.

The molecule `COc1ccccc1C=O` displayed a logP of 1.72.

For `CCNc1nc(NCC)nc(SC)n1`, the logP is 2.8.

`N#CC(C#N)=Cc1ccco1` had a logP of 1.4.

Consider `Cc1cc(C)nc(NC(=O)NS(=O)(=O)c2ccccc2C(=O)OC2COC2)n1`, for which the logP was 1.1.

For `c1ccc2c(c1)ccc1nc3c(ccc4ccccc43)cc12`, the logP amounted to 5.73.

Consider `CC(CO)CO`, for which the logP worked out at 0.24.

In turn, `NC(=O)CN1CCCC1=O` displayed a logP of -1.54.

For `CC(=O)c1cccc(NCc2cnc3nc(N)nc(N)c3c2C)c1`, the logP came out at 1.46.

In turn, `N=C(N)NN=Cc1ccccc1[N+](=O)[O-]` gave a logP of 0.53.

`Cc1sc(C(=O)Nc2nnn[nH]2)c(OC(C)C)c1Br` yielded a logP of 1.72.

Regarding `Clc1cc2c(Cl)cc(Cl)c(Cl)c2c(Cl)c1Cl`, the logP was found to be 7.5.

`c1ccc2cc3c(cc2c1)-c1cccc2cccc-3c12` returned a logP of 6.11.

In the case of `CN1C(=O)CCC1(O)c1cccnc1` (stereo not drawn), the logP is -0.57.

Turning to `N=C(N)NN=Cc1cccs1`, the logP stood at 0.98.

Consider `CC(C)(C)[C@@H](O)[C@H](Cc1ccc(Cl)cc1Cl)n1cncn1`, for which the logP turned out to be 3.8.

`CC(=O)OCN1C(=O)C=C(C)C1=O`: the logP came out at 0.45.

In the case of `COc1c(Cl)ccc(Cl)c1Cl`, the logP came to 3.64.

Take `Nc1cccc2c(N)cccc12`: the logP came to 0.89.

With `Cc1nc(NCCCO)c(C#N)cc1-c1ccccc1`, the logP stood at 2.72.

As for `CCCC(CCC)=NNC(N)=Nc1ccccc1`, the logP was determined as 2.33.

As for `CCCS(=O)c1ccc2[nH]c(NC(=O)OC)nc2c1` (stereo not drawn), the logP stood at 1.27.

The molecule `Cc1cn([C@H]2CC[C@@H](CO)O2)c(=O)[nH]c1=S` had a logP of 0.44.

Molecule `OCC(CO)(CO)CO` showed a logP of -1.69.

On to `O=C([O-])c1ccccc1O.[Na+]`, for which the solubility is 781 mM.

In the case of `Nc1cnn(-c2ccccc2)c(=O)c1Cl`, the logP turned out to be 1.14.

`CNS(=O)(=O)c1ccc(C)cc1` had a logP of 1.28.

Consider `O=C(O)/C=C/C(=O)c1cccnc1`, for which the logP is 0.26.

Take `C=CC(=O)NCCCN1CCOCC1`: the logP is -0.53.

For the molecule `CC(=NNC(N)=Nc1ccccc1)c1ccccc1`, the logP turned out to be 2.18.

`Cc1ccc(C(C)C)c(OCCN(C)C)c1` gave a logP of 3.79.

In turn, `CC(=O)Nc1nc(=O)c2ncn(COCCOC(C)=O)c2[nH]1` returned a logP of -0.85.

As for `CCCCC(OC(Cc1ccccc1)C(=O)N1CCC(OCOC)CC1)C(=O)NC(CC1CCCCC1)C(O)CC(C(=O)NCCCNC(C)=O)C(C)C` (stereo not drawn), the logP turned out to be 4.3.

In turn, `NS(=O)(=O)c1cc(C2(O)NC(=O)c3ccccc32)ccc1Cl` (stereo not drawn) registered a logP of 0.85.

Molecule `COC(=O)C(C#N)=Cc1ccco1` registered a logP of 1.65.

The molecule `Nc1nc2c(ncn2COCCO)c(=O)[nH]1` displayed a logP of -1.56.

The molecule `COc1cccc(OC)c1OCCN(C)C` registered a logP of 1.05.
